Laboratory results taken from article PMC9856672, “SGC-CAMKK2-1: A Chemical Probe for CAMKK2” (Cells, 2023).

Experiments:
CDK8 = target: T1, CDK8 (Homo sapiens, UniProt P49336); assay: KINOMEscan 1 μM, CDK8; assay type: binding; conditions: 1000 nM; Entrez CDK8; read-out: Percent Control
T1 construct: purchased Eurofins DiscoverX KINOMEscan
Source text: (§1) Supplement cells-12-00287-s001.zip/File S2. KinomeScan data for the CAMKK2 probe and negative control.xlsx, sheet "SGC-CAMKK2-1" | column: Percent Control

NEK1 = target: T2, NEK1 (Homo sapiens, UniProt Q96PY6); assay: KINOMEscan 1 μM, NEK1; assay type: binding; conditions: 1000 nM; Entrez NEK1; read-out: Percent Control
T2 construct: purchased Eurofins DiscoverX KINOMEscan
Source text: as §1

PIK3CA(I800L) = target: T3, PIK3CA(I800L) (Homo sapiens, UniProt P42336, I800L); assay: KINOMEscan 1 μM, PIK3CA(I800L); assay type: binding; conditions: 1000 nM; Entrez PIK3CA; read-out: Percent Control
T3 construct: purchased Eurofins DiscoverX KINOMEscan
Source text: as §1

YSK4 = target: T4, YSK4 (Homo sapiens, UniProt Q56UN5); assay: KINOMEscan 1 μM, YSK4; assay type: binding; conditions: 1000 nM; Entrez MAP3K19; read-out: Percent Control
T4 construct: purchased Eurofins DiscoverX KINOMEscan
Source text: as §1

PIK3C2B = target: T5, PIK3C2B (Homo sapiens, UniProt O00750); assay: KINOMEscan 1 μM, PIK3C2B; assay type: binding; conditions: 1000 nM; Entrez PIK3C2B; read-out: Percent Control
T5 construct: purchased Eurofins DiscoverX KINOMEscan
T5 sequence (O00750 whole entry): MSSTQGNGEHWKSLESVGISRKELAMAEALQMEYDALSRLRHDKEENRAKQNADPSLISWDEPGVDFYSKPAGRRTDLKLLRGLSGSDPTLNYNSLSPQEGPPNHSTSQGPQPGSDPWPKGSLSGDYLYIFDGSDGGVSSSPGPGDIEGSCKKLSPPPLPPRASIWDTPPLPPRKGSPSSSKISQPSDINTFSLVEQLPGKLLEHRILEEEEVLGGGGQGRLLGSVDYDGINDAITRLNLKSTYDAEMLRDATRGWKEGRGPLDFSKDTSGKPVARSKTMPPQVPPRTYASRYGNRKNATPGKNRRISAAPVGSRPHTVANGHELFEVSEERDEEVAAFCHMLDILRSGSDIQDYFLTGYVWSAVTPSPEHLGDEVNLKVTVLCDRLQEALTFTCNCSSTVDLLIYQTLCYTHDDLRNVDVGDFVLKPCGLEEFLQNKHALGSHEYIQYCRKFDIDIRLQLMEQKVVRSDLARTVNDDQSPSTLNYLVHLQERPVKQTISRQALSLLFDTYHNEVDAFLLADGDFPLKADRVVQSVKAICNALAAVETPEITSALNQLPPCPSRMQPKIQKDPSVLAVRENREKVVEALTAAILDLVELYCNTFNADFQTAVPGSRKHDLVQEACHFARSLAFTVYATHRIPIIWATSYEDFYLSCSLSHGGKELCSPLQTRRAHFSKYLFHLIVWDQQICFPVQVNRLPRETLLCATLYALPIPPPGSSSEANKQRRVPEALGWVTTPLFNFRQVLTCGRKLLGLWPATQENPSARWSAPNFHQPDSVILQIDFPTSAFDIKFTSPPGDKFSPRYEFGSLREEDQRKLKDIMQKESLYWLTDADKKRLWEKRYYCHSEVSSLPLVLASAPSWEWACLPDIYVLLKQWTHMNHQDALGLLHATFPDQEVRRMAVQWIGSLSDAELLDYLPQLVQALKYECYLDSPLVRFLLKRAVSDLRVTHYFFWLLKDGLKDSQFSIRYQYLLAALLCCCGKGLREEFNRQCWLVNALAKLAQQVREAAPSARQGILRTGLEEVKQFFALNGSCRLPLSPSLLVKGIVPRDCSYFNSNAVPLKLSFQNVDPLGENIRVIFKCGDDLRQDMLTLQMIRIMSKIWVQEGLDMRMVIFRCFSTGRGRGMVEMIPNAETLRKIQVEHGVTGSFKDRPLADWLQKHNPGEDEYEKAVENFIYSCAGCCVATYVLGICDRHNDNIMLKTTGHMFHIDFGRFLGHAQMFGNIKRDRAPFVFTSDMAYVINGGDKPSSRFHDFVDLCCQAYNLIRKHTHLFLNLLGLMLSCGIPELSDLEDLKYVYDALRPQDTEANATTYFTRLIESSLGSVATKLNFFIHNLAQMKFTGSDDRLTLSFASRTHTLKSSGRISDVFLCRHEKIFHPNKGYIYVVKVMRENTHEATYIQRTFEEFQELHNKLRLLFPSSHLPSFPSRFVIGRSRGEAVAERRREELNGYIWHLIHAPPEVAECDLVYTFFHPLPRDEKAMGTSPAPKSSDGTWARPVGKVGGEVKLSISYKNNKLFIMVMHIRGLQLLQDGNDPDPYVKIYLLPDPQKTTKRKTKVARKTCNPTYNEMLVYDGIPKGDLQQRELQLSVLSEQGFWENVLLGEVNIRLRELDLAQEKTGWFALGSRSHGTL
Source text: as §1

FGFR3 = target: T6, FGFR3 (Homo sapiens, UniProt P22607); assay: KINOMEscan 1 μM, FGFR3; assay type: binding; conditions: 1000 nM; Entrez FGFR3; read-out: Percent Control
T6 construct: purchased Eurofins DiscoverX KINOMEscan
Source text: as §1

BTK = target: T7, BTK (Homo sapiens, UniProt Q06187); assay: KINOMEscan 1 μM, BTK; assay type: binding; conditions: 1000 nM; Entrez BTK; read-out: Percent Control
T7 construct: purchased Eurofins DiscoverX KINOMEscan
Source text: as §1

FLT3(K663Q) = target: T8, FLT3(K663Q) (Homo sapiens, UniProt P36888, K663Q); assay: KINOMEscan 1 μM, FLT3(K663Q); assay type: binding; conditions: 1000 nM; Entrez FLT3; read-out: Percent Control
T8 construct: purchased Eurofins DiscoverX KINOMEscan
Source text: as §1

GSK3B = target: T9, GSK3B (Homo sapiens, UniProt P49841); assay: KINOMEscan 1 μM, GSK3B; assay type: binding; conditions: 1000 nM; Entrez GSK3B; read-out: Percent Control
T9 construct: purchased Eurofins DiscoverX KINOMEscan
Source text: as §1

KIT-autoinhibited = target: T10, KIT-autoinhibited (Homo sapiens, UniProt P10721); assay: KINOMEscan 1 μM, KIT-autoinhibited; assay type: binding; conditions: 1000 nM; Entrez KIT; read-out: Percent Control
T10 construct: purchased Eurofins DiscoverX KINOMEscan
Source text: as §1

MAP3K1 [1] = target: T11, MAP3K1 (Homo sapiens, UniProt Q13233); assay: KINOMEscan 1 μM, MAP3K1; assay type: binding; conditions: 1000 nM; Entrez MAP3K1; read-out: Percent Control
T11 construct: purchased Eurofins DiscoverX KINOMEscan
T11 sequence (Q13233 whole entry): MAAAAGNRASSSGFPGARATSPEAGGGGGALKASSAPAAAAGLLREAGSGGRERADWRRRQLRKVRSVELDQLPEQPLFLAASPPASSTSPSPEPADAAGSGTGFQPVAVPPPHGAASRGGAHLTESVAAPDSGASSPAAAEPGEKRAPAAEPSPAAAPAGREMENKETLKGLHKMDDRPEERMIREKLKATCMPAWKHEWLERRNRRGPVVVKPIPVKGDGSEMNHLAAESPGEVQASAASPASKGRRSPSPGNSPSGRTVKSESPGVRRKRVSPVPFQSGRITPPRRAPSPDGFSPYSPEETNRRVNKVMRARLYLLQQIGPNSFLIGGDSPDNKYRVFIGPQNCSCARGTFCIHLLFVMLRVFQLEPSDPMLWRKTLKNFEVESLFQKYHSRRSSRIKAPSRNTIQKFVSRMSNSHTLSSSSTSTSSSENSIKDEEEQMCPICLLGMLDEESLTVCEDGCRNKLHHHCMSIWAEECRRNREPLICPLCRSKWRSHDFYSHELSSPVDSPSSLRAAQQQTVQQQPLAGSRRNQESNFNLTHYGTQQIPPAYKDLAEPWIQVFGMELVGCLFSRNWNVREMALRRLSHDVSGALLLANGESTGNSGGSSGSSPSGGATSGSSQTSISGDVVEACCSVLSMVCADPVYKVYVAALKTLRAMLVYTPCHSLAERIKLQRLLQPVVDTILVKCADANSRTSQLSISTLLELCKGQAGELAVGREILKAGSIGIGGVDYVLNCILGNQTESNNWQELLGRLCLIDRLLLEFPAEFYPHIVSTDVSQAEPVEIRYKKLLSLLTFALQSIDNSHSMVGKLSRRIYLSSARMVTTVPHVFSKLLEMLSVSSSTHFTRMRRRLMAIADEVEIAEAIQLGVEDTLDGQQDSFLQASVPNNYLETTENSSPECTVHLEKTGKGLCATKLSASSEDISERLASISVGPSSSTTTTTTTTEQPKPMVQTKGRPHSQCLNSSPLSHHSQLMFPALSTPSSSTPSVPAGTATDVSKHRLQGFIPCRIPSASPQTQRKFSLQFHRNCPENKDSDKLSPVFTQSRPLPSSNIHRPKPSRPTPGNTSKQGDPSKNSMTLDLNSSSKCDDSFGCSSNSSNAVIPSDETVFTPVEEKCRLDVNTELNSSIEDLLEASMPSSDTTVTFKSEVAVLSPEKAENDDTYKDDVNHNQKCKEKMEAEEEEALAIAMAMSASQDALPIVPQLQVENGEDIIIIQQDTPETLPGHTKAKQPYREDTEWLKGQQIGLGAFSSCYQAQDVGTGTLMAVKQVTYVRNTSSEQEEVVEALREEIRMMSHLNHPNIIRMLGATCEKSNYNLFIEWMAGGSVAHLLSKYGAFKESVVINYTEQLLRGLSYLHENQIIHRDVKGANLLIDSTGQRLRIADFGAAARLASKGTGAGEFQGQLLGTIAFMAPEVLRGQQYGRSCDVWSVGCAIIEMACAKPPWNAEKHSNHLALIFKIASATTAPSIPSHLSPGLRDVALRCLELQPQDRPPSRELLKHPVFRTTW
Source text: as §1

PAK3 = target: T12, PAK3 (Homo sapiens, UniProt O75914); assay: DiscoverX KINOMEscan binding assay at 1 μM, PAK3; conditions: Compound Concentration 1000 nM, read-out: Percent Control
T12 construct: purchased Eurofins DiscoverX KINOMEscan
Source text: as §1

PIK3CB = target: T13, PIK3CB (Homo sapiens, UniProt P42338); assay: DiscoverX KINOMEscan binding assay at 1 μM, PIK3CB; conditions: Compound Concentration 1000 nM, read-out: Percent Control
T13 construct: purchased Eurofins DiscoverX KINOMEscan
Source text: as §1

YANK1 = target: T14, YANK1 (Homo sapiens, UniProt Q8WU08); assay: DiscoverX KINOMEscan binding assay at 1 μM, YANK1; conditions: YANK1 (STK32A); Compound Concentration 1000 nM; read-out: Percent Control
T14 construct: purchased Eurofins DiscoverX KINOMEscan
Source text: as §1

QSK = target: T15, QSK (Homo sapiens, UniProt Q9Y2K2); assay: KINOMEscan at 1 μM, QSK; assay type: binding; conditions: 1000 nM, read-out: Percent Control
T15 construct: purchased Eurofins DiscoverX KINOMEscan
Source text: (§2) Supplement cells-12-00287-s001.zip/File S2. KinomeScan data for the CAMKK2 probe and negative control.xlsx, sheet "SGC-CAMKK2-1N" | column: Percent Control

CAMK1B = target: T16, CAMK1B (Homo sapiens, UniProt Q6P2M8); assay: KINOMEscan at 1 μM, CAMK1B; assay type: binding; conditions: 1000 nM, read-out: Percent Control
T16 construct: purchased Eurofins DiscoverX KINOMEscan
Source text: as §2

TSSK3 = target: T17, TSSK3 (Homo sapiens, UniProt Q96PN8); assay: KINOMEscan at 1 μM, TSSK3; assay type: binding; conditions: 1000 nM, read-out: Percent Control
T17 construct: purchased Eurofins DiscoverX KINOMEscan
Source text: as §2

MARK2 = target: T18, MARK2 (Homo sapiens, UniProt Q7KZI7); assay: KINOMEscan at 1 μM, MARK2; assay type: binding; conditions: 1000 nM, read-out: Percent Control
T18 construct: purchased Eurofins DiscoverX KINOMEscan
Source text: as §2

MAP3K1 [2] = target: T11, MAP3K1; assay: KINOMEscan at 1 μM, MAP3K1; assay type: binding; conditions: 1000 nM, read-out: Percent Control
Source text: as §2

JNK2 = target: T19, JNK2 (Homo sapiens, UniProt P45984); assay: KINOMEscan at 1 μM, JNK2; assay type: binding; conditions: 1000 nM, read-out: Percent Control
T19 construct: purchased Eurofins DiscoverX KINOMEscan
Source text: as §2

DLK = target: T20, DLK (Homo sapiens, UniProt Q12852); assay: KINOMEscan at 1 μM, DLK; assay type: binding; conditions: 1000 nM, read-out: Percent Control
T20 construct: purchased Eurofins DiscoverX KINOMEscan
Source text: as §2

TAOK1 = target: T21, TAOK1 (Homo sapiens, UniProt Q7L7X3); assay: KINOMEscan at 1 μM, TAOK1; assay type: binding; conditions: 1000 nM, read-out: Percent Control
T21 construct: purchased Eurofins DiscoverX KINOMEscan
Source text: as §2

CSNK2A1 = target: T22, CSNK2A1 (Homo sapiens, UniProt P68400); assay: KINOMEscan at 1 μM, CSNK2A1; assay type: binding; conditions: 1000 nM, read-out: Percent Control
T22 construct: purchased Eurofins DiscoverX KINOMEscan
Source text: as §2

EGFR(L858R,T790M) = target: T23, EGFR(L858R,T790M) (Homo sapiens, UniProt P00533, L858R/T790M); assay: KINOMEscan at 1 μM, EGFR(L858R,T790M); assay type: binding; conditions: 1000 nM, read-out: Percent Control
T23 construct: purchased Eurofins DiscoverX KINOMEscan
T23 sequence (P00533 25-1210 T790M/L858R): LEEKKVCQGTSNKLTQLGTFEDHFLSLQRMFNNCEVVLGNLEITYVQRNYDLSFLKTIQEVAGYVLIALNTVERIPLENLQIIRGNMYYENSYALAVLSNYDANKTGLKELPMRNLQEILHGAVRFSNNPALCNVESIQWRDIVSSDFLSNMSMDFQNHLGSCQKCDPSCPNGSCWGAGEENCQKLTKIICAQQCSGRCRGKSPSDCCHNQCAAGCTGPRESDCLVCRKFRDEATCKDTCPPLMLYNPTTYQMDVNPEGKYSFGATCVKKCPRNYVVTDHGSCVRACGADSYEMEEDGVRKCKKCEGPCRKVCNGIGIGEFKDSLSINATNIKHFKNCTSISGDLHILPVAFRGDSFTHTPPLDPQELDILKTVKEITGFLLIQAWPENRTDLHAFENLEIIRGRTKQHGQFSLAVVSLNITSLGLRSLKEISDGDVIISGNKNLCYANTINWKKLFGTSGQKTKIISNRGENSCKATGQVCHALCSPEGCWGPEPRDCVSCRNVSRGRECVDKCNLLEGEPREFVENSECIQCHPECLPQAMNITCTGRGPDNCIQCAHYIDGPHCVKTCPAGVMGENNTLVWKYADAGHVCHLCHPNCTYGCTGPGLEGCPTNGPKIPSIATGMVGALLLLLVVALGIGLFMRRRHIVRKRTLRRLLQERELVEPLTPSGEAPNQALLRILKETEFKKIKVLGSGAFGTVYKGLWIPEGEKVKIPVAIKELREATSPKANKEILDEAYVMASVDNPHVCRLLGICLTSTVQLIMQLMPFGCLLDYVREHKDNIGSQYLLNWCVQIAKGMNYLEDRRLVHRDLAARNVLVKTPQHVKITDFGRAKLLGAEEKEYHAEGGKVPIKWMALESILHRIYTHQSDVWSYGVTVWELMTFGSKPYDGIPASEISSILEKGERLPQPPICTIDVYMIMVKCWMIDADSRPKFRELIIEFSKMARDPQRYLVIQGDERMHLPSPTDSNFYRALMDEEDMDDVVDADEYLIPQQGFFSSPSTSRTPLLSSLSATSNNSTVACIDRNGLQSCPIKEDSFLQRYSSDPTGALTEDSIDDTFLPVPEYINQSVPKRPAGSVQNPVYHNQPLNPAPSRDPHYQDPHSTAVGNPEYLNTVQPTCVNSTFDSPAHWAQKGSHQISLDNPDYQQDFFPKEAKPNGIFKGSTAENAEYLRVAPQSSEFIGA
Source text: as §2

MAP3K2 = target: T24, MAP3K2 (Homo sapiens, UniProt Q9Y2U5); assay: KINOMEscan at 1 μM, MAP3K2; assay type: binding; conditions: 1000 nM, read-out: Percent Control
T24 construct: purchased Eurofins DiscoverX KINOMEscan
Source text: as §2

CAMK2G = target: T25, CAMK2G (Homo sapiens, UniProt Q13555); assay: KINOMEscan at 1 μM, CAMK2G; assay type: binding; conditions: 1000 nM, read-out: Percent Control
T25 construct: purchased Eurofins DiscoverX KINOMEscan
Source text: as §2

CDK9 = target: T26, CDK9 (Homo sapiens, UniProt P50750); assay: KINOMEscan at 1 μM, CDK9; assay type: binding; conditions: 1000 nM, read-out: Percent Control
T26 construct: purchased Eurofins DiscoverX KINOMEscan
Source text: as §2

PRKR = target: T27, PRKR (Homo sapiens, UniProt P19525); assay: KINOMEscan at 1 μM, PRKR; assay type: binding; conditions: 1000 nM, read-out: Percent Control
T27 construct: purchased Eurofins DiscoverX KINOMEscan
T27 sequence (P19525 whole entry): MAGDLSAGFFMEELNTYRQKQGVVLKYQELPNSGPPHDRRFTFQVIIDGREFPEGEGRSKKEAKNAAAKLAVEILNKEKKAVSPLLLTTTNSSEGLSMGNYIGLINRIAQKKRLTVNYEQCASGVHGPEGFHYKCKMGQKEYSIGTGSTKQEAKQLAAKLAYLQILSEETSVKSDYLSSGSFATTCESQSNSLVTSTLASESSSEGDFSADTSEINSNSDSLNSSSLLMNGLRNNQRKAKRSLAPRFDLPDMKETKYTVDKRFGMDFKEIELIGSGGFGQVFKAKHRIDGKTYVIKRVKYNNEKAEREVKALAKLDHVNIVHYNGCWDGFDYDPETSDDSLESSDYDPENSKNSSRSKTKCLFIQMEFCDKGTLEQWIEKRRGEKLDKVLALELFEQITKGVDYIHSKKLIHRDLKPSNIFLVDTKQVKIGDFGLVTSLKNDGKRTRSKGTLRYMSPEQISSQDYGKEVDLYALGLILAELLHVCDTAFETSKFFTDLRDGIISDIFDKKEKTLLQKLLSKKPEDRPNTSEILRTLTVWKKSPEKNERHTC
Source text: as §2

VEGFR2 = target: T28, VEGFR2 (Homo sapiens, UniProt P35968); assay: KINOMEscan at 1 μM, VEGFR2; assay type: binding; conditions: 1000 nM, read-out: Percent Control
T28 construct: purchased Eurofins DiscoverX KINOMEscan
Source text: as §2

RIOK2 = target: T29, RIOK2 (Homo sapiens, UniProt Q9BVS4); assay: KINOMEscan at 1 μM, RIOK2; assay type: binding; conditions: 1000 nM, read-out: Percent Control
T29 construct: purchased Eurofins DiscoverX KINOMEscan
Source text: as §2

DAPK1 = target: T30, DAPK1 (Homo sapiens, UniProt P53355); assay: KINOMEscan at 1 μM, DAPK1; assay type: binding; conditions: 1000 nM, read-out: Percent Control
T30 construct: purchased Eurofins DiscoverX KINOMEscan
Source text: as §2

EGFR(S752-I759del) = target: T31, EGFR(S752-I759del) (Homo sapiens, UniProt P00533, DEL752-759); assay: KINOMEscan binding assay at 1 μM, EGFR(S752-I759del); conditions: Compound Concentration 1000 nM; read-out: Percent Control
T31 construct: purchased Eurofins DiscoverX KINOMEscan
Source text: as §2

MLCK = target: T32, MLCK (Homo sapiens, UniProt Q32MK0); assay: KINOMEscan binding assay at 1 μM, MLCK; conditions: Compound Concentration 1000 nM; read-out: Percent Control
T32 construct: purchased Eurofins DiscoverX KINOMEscan
Source text: as §2

SNRK = target: T33, SNRK (Homo sapiens, UniProt Q9NRH2); assay: KINOMEscan binding assay at 1 μM, SNRK; conditions: Compound Concentration 1000 nM; read-out: Percent Control
T33 construct: purchased Eurofins DiscoverX KINOMEscan
Source text: as §2

Molecule `Cc1cccc(-c2cnc3occ(-c4ccc(C(=O)O)c(C5CCCC5)c4)c3c2)c1` [SGC-CAMKK2-1 (YL-36)] has a remaining binding at 1 µM (CDK8) of 72%, a remaining binding at 1 µM (NEK1) of 85% and a remaining binding at 1 µM (PIK3CA(I800L)) of 85%. The remaining binding at 1 µM (YSK4) was 85%, the remaining binding at 1 µM (PIK3C2B) was 87% and the remaining binding at 1 µM (FGFR3) was 95%. It also gave a remaining binding at 1 µM (BTK) of 100%, a remaining binding at 1 µM (FLT3(K663Q)) of 100% and a remaining binding at 1 µM (GSK3B) of 100%. The remaining binding at 1 µM (KIT-autoinhibited) was 100%, the remaining binding at 1 µM (MAP3K1 [1]) was 100% and the remaining binding at 1 µM (PAK3) was 100%. It also gave a remaining binding at 1 µM (PIK3CB) of 100% and a remaining binding at 1 µM (YANK1) of 100%.

Molecule `O=C(O)c1ccc(-c2coc3ncc(-c4ccccc4)cc23)cc1Cl` [SGC-CAMKK2-1N (UNC-YL-83)] has a remaining binding at 1 µM (QSK) of 46%, a remaining binding at 1 µM (CAMK1B) of 61% and a remaining binding at 1 µM (TSSK3) of 65%. For the same molecule, the remaining binding at 1 µM (MARK2) was 70%, the remaining binding at 1 µM (MAP3K1 [2]) was 74% and the remaining binding at 1 µM (JNK2) was 76%. The remaining binding at 1 µM (DLK) was 77%, the remaining binding at 1 µM (TAOK1) was 77% and the remaining binding at 1 µM (CSNK2A1) was 80%. For the same molecule, the remaining binding at 1 µM (EGFR(L858R,T790M)) was 83%, the remaining binding at 1 µM (MAP3K2) was 83% and the remaining binding at 1 µM (CAMK2G) was 85%. It also gave a remaining binding at 1 µM (CDK9) of 89%, a remaining binding at 1 µM (PRKR) of 90% and a remaining binding at 1 µM (VEGFR2) of 90%. It also gave a remaining binding at 1 µM (RIOK2) of 93%, a remaining binding at 1 µM (DAPK1) of 100% and a remaining binding at 1 µM (EGFR(S752-I759del)) of 100%. The remaining binding at 1 µM (MLCK) was 100% and the remaining binding at 1 µM (SNRK) was 100%.
